Measured values: patent US20190223479A1, “SUGAR-DIPEPTIDE CONJUGATES AS FLAVOR MOLECULES” (NESTEC S.A., priority 2016, published 2019)
Entries after “also recorded” stand apart in the source; their conditions may differ.

Key:
[1] = Sensory evaluation by 12 panelists of chicken soup spiked with the compounds; settings: versus un-spiked reference soup; for Flavor property in chicken soup (2 g/l): compound added at 2 g/l
Procedure: Sample preparation: Chicken soups were prepared by dissolving 6 g chicken base powder (detailed recipe shown in Table 1), 1 g monosodium glutamate and 1 g of sodium chloride in 500 mL hot water. The compounds were separately added at 2 g/l and 0.25 g/l.
Sensory protocol: The sensory evaluation was carried out by 12 panelists, previously screened for their sensory abilities. The panelists assessed a maximum of 6 samples per session. They had Vittel water and crackers as mouth cleansers. In all the cases, the panelists were instructed to evaluate the samples on the following attributes: overall flavor persistency, umami, meaty, grilled/popcorn, boiled chicken, sweet, bitter, salty. The samples were coded with random 3-digit numbers according to a balanced presentation design, heated at approximately 65° C. and then presented in 40 ml brown plastic containers and under red light to minimize appearance bias (the serving was approximately 25 ml per sample).

[2] = Sensory comparison by 6 panelists (nose-clips) of soup with sugar conjugate vs equimolar glucose and lysine; settings: 2 g/L (6.49 mmol/L) in soup base versus same molar concentrations of glucose and lysine
Procedure: A first soup was prepared by adding 2 g/L (6.49 mmol/L) 1-deoxy-D-fructosyl-N-Lysine (GluAmadori-Lys2) in the soup base as described above. A second soup was prepared by adding same corresponding molar concentrations of glucose and lysine. The solutions were then evaluated by 6 panelists following the same procedure than described above with using nose-clips.

[3] = Tomato soup seasoning compositions with added compound; settings: 0.5 g/L or 2.5 g/L, versus reference soups without the compounds
Procedure: Tomato soups can be prepared by dissolving 6 g tomato base powder as can be obtained in the commerce in 500 mL hot water. GluAmadori-Lys1 or GluAmadori-Lys2 can then be added at a concentration of 0.5 g/L or 2.5 g/L to the soups in order to improve their taste and flavor profile. […] For example, a similar tomato soup can now be prepared which has the same saltiness as the reference tomato soup but comprising less sodium chloride.

[4] = described by T. Sonntag et al.; cited from earlier work

Row | Compound | Flavor property in chicken soup (2 g/l) [1] | further results
1 | 1-deoxy-D-fructosyl-N-Lysine [GluAmadori-Lys2] | enhanced saltiness, umaminess and overall flavor persistency | Sensory differences [2]: more salty and umami; Taste and flavor profile of tomato soup [3]: more pronounced umami taste as well as being perceived as more salty
2 | NCCCC[C@H](N)C(=O)O [L-lysine] | – | Taste quality [4]: bitter tasting compound
3 | NCCCC[C@H](NCC1(O)OCC(O)C1O)C(=O)O (stereo partly drawn) [RibAmadori-Lys1, ((2,3,4-trihydroxytetrahydrofuran-2-yl)methyl)lysine] | baked and roasted flavors were significantly increased; also recorded: baked, roasted flavor | –
4 | N[C@@H](CCCCNCC1(O)OCC(O)C1O)C(=O)O (stereo partly drawn) [RibAmadori-Lys2, N6-((2,3,4-trihydroxytetrahydrofuran-2-yl)methyl)lysine] | enhanced roasted flavor | –
5 | NCCCC[C@H](NCC1(O)OCC(O)C1O)C(=O)O (stereo partly drawn) [XylAmadori-Lys1, ((2,3,4-trihydroxytetrahydrofuran-2-yl)methyl)lysine] | baked and roasted flavors were significantly increased; also recorded: baked, roasted flavor | Flavor property in chicken soup (0.25 g/l) ([1]; compound added at 0.25 g/l): baked and roasted flavors were significantly increased
6 | N[C@@H](CCCCNCC1(O)OCC(O)C1O)C(=O)O (stereo partly drawn) [XylAmadori-Lys2, N6-((2,3,4-trihydroxytetrahydrofuran-2-yl)methyl)lysine] | enhanced meat flavor | –
